Measurements from patent publication US11267822B2, “BET bromodomain protein degraders with cleavable linkers” (THE REGENTS OF THE UNIVERSITY OF MICHIGAN, priority 2017, dated 2022).
Blank lines part the entries; values can stand above or below the compound they belong to.

Experiments:
[1] = Pharmacokinetics in RS4;11 tumor-bearing mice (plasma and tumor concentrations); format: in vivo; conditions: for Cpd. No. 15 Concentration in plasma: IV 10 mg/kg Cpd. No. 15, RS4;11 tumor-bearing mice
Source text: The pharmacokinetics of Cpd. No. 15 in RS4;11 tumor-bearing mice show it is converted to Cpd. No. 52 in plasma and tumor tissue. BLOQ=below limit of detection; nd=not determined

BET protein = assay: Pharmacodynamic effect in RS4;11 tumor tissue in mice (BET protein degradation); format: in vivo; conditions: RS4;11 tumor-bearing mice, intravenous dosing at 10 mg/kg
Source text: FIG. 1 is an illustration showing the pharmacodynamic effect of Cpd. No. 15 in RS4;11 tumor tissue in mice.
FIG. 2 is an illustration showing the pharmacodynamic effect of Cpd. No. 16 in RS4;11 tumor tissue in mice.
The pharmacodynamic effect of Cpd. No. 15 and Cpd.

MOLM13 = assay: Cell growth inhibition, CellTiter-Glo Luminescent Cell Viability Assay, MOLM13; format: cell-based; conditions: MOLM13 cells, 4 days
Experimental: (§1) Cell growth inhibitory activity of representative Compounds of the Disclosure was determined using the CellTiter-Glo® Luminescent Cell Viability Assay. Cells were seeded in 384-well white opaque cell culture plates at a density of 2,000 cells/well with serially diluted compounds and incubated at 37° C. in an atmosphere of 95% air and 5% CO2 for 4 days. Cell viability was determined using the CellTiter-Glo® Luminescent Cell Viability Assay Kit (Promega, Madison, Wis.) according to the manufacture's instruction. Briefly, a volume of CellTiter-Glo® Reagent equal to the volume of cell culture medium was added to each well, and then the plates were incubated at room temperature for 10-20 minutes. The luminescent signal was measured using a Tecan Infinite M1000 multimode microplate reader (Tecan, Morrisville, N.C.). The half maximal inhibitory concentration (IC50) in Table 3 was calculated using the GraphPad Prism 5 software (GraphPad Software, La Jolla, Calif.).

MDA-MB-231 = assay: Cell growth inhibition, CellTiter-Glo Luminescent Cell Viability Assay, MDA-MB-231; format: cell-based; conditions: MDA-MB-231 cells, 4 days
Experimental: as §1

Cpd. No. 15 Concentration in tumor ([1]; IV 10 mg/kg Cpd. No. 15, 1 h, Mouse 1 L tumor): BLOQ
Cpd. No. 15 Concentration in tumor ([1]; IV 10 mg/kg Cpd. No. 15, 1 h, Mouse 1 R tumor): BLOQ
Cpd. No. 15 Concentration in tumor ([1]; IV 10 mg/kg Cpd. No. 15, 1 h, Mouse 2 L tumor): BLOQ
Cpd. No. 15 Concentration in tumor ([1]; IV 10 mg/kg Cpd. No. 15, 1 h, Mouse 2 R tumor): BLOQ
Cpd. No. 15 Concentration in tumor ([1]; IV 10 mg/kg Cpd. No. 15, 3 h, Mouse 1 L tumor): BLOQ
Cpd. No. 15 Concentration in tumor ([1]; IV 10 mg/kg Cpd. No. 15, 3 h, Mouse 1 R tumor): BLOQ
Cpd. No. 15 Concentration in tumor ([1]; IV 10 mg/kg Cpd. No. 15, 3 h, Mouse 2 L tumor): BLOQ
Cpd. No. 15 Concentration in tumor ([1]; IV 10 mg/kg Cpd. No. 15, 3 h, Mouse 2 R tumor): BLOQ
Cpd. No. 15 Concentration in plasma ([1]; 1 h, mouse 1): BLOQ
Cpd. No. 15 Concentration in plasma ([1]; 1 h, mouse 2): BLOQ
Cpd. No. 15 Concentration in plasma ([1]; 3 h, mouse 1): BLOQ
Cpd. No. 15 Concentration in plasma ([1]; 3 h, mouse 2): BLOQ
Compound: Cc1nnc2n1-c1sc(C#Cc3cnn(CCCC(=O)OCCCOc4cccc5c4CN(C4CCC(=O)NC4=O)C5=O)c3)c(Cc3ccccc3)c1COC2 (stereo not shown) [Cpd. No. 15, 3-((2-(2,6-dioxopiperidin-3-yl)-1-oxoisoindolin-4-yl)oxy)propyl 4-(4-((3-benzyl-9-methyl-4H,6H-thieno[2,3-e][1,2,4]triazolo[3,4-c][1,4]oxazepin-2-yl)ethynyl)-1H-pyrazol-1-yl)butanoate]
Conversion (metabolism) in plasma and tumor tissue ([1]; RS4;11 tumor-bearing mice, IV 10 mg/kg): converted to Cpd. No. 52 in plasma and tumor tissue
Pharmacodynamic effect: BET protein degradation in tumor tissue (BET protein): induce BET protein degradation in tumor tissue

IC50 (MOLM13; Homo sapiens, MOLM-13, 96 h): 0.4 nM
IC50 (MOLM13): 0.2 nM
IC50 (MDA-MB-231; Homo sapiens, MDA-MB-231, 96 h): 1.5 nM
IC50 (MDA-MB-231): 0.9 nM
Compound: Cc1nnc2n1-c1sc(C#Cc3cnn(CCCC(=O)OCCC#Cc4cccc5c4CN(C4CCC(=O)NC4=O)C5=O)c3)c(Cc3ccccc3)c1COC2 (stereo not shown) [Cpd. No. 16, 4-(2-(2,6-dioxopiperidin-3-yl)-1-oxoisoindolin-4-yl)but-3-yn-1-yl 4-(4-((3-benzyl-9-methyl-4H,6H-thieno[2,3-e][1,2,4]triazolo[3,4-c][1,4]oxazepin-2-yl)ethynyl)-1H-pyrazol-1-yl)butanoate]
Pharmacodynamic effect: BET protein degradation in tumor tissue (BET protein): induce BET protein degradation in tumor tissue

IC50 (MOLM13; Homo sapiens, MOLM-13, 96 h): 3.8 nM
IC50 (MDA-MB-231; Homo sapiens, MDA-MB-231, 96 h): 1.2 nM
Compound: Cc1nnc2n1-c1sc(C#Cc3cnn(CCCC(=O)OCC#Cc4cccc5c4CN(C4CCC(=O)NC4=O)C5=O)c3)c(Cc3ccccc3)c1COC2 (stereo not shown) [compound 41, 3-(2-(2,6-dioxopiperidin-3-yl)-1-oxoisoindolin-4-yl)prop-2-yn-1-yl 4-(4-((3-benzyl-9-methyl-4H,6H-thieno[2,3-e][1,2,4]triazolo[3,4-c][1,4]oxazepin-2-yl)ethynyl)-1H-pyrazol-1-yl)butanoate]

Continued, compound first:

Compound: Cc1nnc2n1-c1sc(C#Cc3cnn(CC(=O)OCCCCc4cccc5c4CN(C4CCC(=O)NC4=O)C5=O)c3)c(Cc3ccccc3)c1COC2 (stereo not shown) [compound 34, 4-(2-(2,6-dioxopiperidin-3-yl)-1-oxoisoindolin-4-yl)butyl 2-(4-((3-benzyl-9-methyl-4H,6H-thieno[2,3-e][1,2,4]triazolo[3,4-c][1,4]oxazepin-2-yl)ethynyl)-1H-pyrazol-1-yl)acetate]
IC50 (MOLM13; Homo sapiens, MOLM-13, 96 h): 0.7 nM
IC50 (MDA-MB-231; Homo sapiens, MDA-MB-231, 96 h): 8.4 nM

Compound: Cc1nnc2n1-c1sc(C#Cc3cnn(CC(=O)OCCCc4cccc5c4CN(C4CCC(=O)NC4=O)C5=O)c3)c(Cc3ccccc3)c1COC2 (stereo not shown) [compound 38, 3-(2-(2,6-dioxopiperidin-3-yl)-1-oxoisoindolin-4-yl)propyl 2-(4-((3-benzyl-9-methyl-4H,6H-thieno[2,3-e][1,2,4]triazolo[3,4-c][1,4]oxazepin-2-yl)ethynyl)-1H-pyrazol-1-yl)acetate]
IC50 (MOLM13; Homo sapiens, MOLM-13, 96 h): 22 nM
IC50 (MDA-MB-231; Homo sapiens, MDA-MB-231, 96 h): > 100 nM

Compound: Cc1nnc2n1-c1sc(C#Cc3ccc(CCCC(=O)OCCN4CCC(Nc5cccc6c5CN(C5CCC(=O)NC5=O)C6=O)CC4)nc3)c(Cc3ccccc3)c1COC2 (stereo not shown) [compound 42, 2-(4-((2-(2,6-dioxopiperidin-3-yl)-1-oxoisoindolin-4-yl)amino)piperidin-1-yl)ethyl 4-(5-((3-benzyl-9-methyl-4H,6H-thieno[2,3-e][1,2,4]triazolo[3,4-c][1,4]oxazepin-2-yl)ethynyl)pyridin-2-yl)butanoate]
IC50 (MOLM13; Homo sapiens, MOLM-13, 96 h): 5.5 nM
IC50 (MDA-MB-231; Homo sapiens, MDA-MB-231, 96 h): 4.9 nM

Compound: Cc1nnc2n1-c1sc(C#Cc3ccc(CCCC(=O)OCCN4CCN(c5cccc6c5C(=O)N(C5CCC(=O)NC5=O)C6=O)CC4)nc3)c(Cc3ccccc3)c1COC2 (stereo not shown) [compound 43, 2-(4-(2-(2,6-dioxopiperidin-3-yl)-1,3-dioxoisoindolin-4-yl)piperazin-1-yl)ethyl 4-(5-((3-benzyl-9-methyl-4H,6H-thieno[2,3-e][1,2,4]triazolo[3,4-c][1,4]oxazepin-2-yl)ethynyl)pyridin-2-yl)butanoate]
IC50 (MOLM13; Homo sapiens, MOLM-13, 96 h): > 100 nM
IC50 (MDA-MB-231; Homo sapiens, MDA-MB-231, 96 h): > 100 nM

Compound: Cc1nnc2n1-c1sc(C#Cc3cnn(CCCC(=O)OCCN4CCN(c5cccc6c5C(=O)N(C5CCC(=O)NC5=O)C6=O)CC4)c3)c(Cc3ccccc3)c1COC2 (stereo not shown) [compound 44, 2-(4-(2-(2,6-dioxopiperidin-3-yl)-1,3-dioxoisoindolin-4-yl)piperazin-1-yl)ethyl 4-(4-((3-benzyl-9-methyl-4H,6H-thieno[2,3-e][1,2,4]triazolo[3,4-c][1,4]oxazepin-2-yl)ethynyl)-1H-pyrazol-1-yl)butanoate]
IC50 (MOLM13; Homo sapiens, MOLM-13, 96 h): 4.3 nM
IC50 (MDA-MB-231; Homo sapiens, MDA-MB-231, 96 h): > 100 nM
